Laboratory results as given in ChEMBL document CHEMBL3046105, “Synthesis and antihyperlipidemic efficiency of berberine-based HMG-CoA reductase inhibitor” (Med Chem Res, 2012).

Legend:
[1] = biological target: T1, 3-hydroxy-3-methylglutaryl-coenzyme A reductase (Mus musculus) (UniProt Q01237); assay: Inhibition of HMGR isolated from Mus musculus (mouse) liver assessed as change in NADPH at 8 umol/l by HPLC analysis
T1 sequence (whole entry): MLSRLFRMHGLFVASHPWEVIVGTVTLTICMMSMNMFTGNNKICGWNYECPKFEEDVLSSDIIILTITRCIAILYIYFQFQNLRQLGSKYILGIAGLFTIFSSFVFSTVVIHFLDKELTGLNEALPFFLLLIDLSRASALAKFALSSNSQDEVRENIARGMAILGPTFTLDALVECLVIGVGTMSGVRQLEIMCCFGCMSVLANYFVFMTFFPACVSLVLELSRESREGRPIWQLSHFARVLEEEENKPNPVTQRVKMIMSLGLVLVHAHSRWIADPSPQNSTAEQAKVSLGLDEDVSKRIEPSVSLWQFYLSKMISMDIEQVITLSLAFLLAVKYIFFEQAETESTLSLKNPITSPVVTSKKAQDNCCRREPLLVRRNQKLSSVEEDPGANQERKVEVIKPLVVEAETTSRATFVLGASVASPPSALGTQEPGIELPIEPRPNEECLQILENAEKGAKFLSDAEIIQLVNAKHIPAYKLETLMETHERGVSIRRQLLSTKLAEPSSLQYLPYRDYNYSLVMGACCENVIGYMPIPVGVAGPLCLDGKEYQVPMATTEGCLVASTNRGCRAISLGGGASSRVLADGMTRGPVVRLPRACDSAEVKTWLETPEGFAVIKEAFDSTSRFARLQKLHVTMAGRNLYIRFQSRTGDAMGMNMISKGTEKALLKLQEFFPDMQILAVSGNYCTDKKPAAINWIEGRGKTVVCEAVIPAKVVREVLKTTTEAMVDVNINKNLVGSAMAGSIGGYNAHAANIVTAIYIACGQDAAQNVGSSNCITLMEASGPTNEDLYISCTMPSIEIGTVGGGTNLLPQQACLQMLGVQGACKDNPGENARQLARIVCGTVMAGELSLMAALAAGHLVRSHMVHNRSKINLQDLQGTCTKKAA

Oryctolagus cuniculus [2] = assay: Antihyperlipidemic activity in high fat-high cholesterol fed New Zealand Oryctolagus cuniculus (rabbit) assessed as high-density lipoprotein-cholesterol level in blood at 15 mg/kg, po for 40 days (reference value: 0.67 +/- 0.22 mmol/l); assay type: functional
Oryctolagus cuniculus [3] = assay: Antihyperlipidemic activity in high fat-high cholesterol fed New Zealand Oryctolagus cuniculus (rabbit) assessed as low-density lipoprotein-cholesterol level in blood at 15 mg/kg, po for 40 days (reference value: 3.45 +/- 0.56 mmol/l); assay type: functional
Oryctolagus cuniculus [4] = assay: Antihyperlipidemic activity in high fat-high cholesterol fed New Zealand Oryctolagus cuniculus (rabbit) assessed as triglyceride level in blood at 15 mg/kg, po for 40 days (reference value: 2.11 +/- 0.43 mmol/l); assay type: functional
Oryctolagus cuniculus [5] = assay: Antihyperlipidemic activity in high fat-high cholesterol fed New Zealand Oryctolagus cuniculus (rabbit) assessed as total cholesterol level in blood at 15 mg/kg, po for 40 days (reference value: 8.89 +/- 0.53 mmol/l); assay type: functional
[6] = Toxicity in Mus musculus Kunming (mouse); assay type: organism-based; settings: in vivo
Oryctolagus cuniculus [7] = assay: Toxicity in high fat-high cholesterol fed New Zealand Oryctolagus cuniculus (rabbit) assessed as mortality at 15 mg/kg, po for 40 days; assay type: organism-based; set-up: dose 15 mg/kg, route oral; settings: in vivo, 960 h
Oryctolagus cuniculus [8] = assay: Toxicity in high fat-high cholesterol fed New Zealand Oryctolagus cuniculus (rabbit) assessed as body weight at 15 mg/kg, po for 40 days; assay type: organism-based; set-up: dose 15 mg/kg, route oral; settings: in vivo, 960 h
Oryctolagus cuniculus [9] = assay: Antihyperlipidemic activity in high fat-high cholesterol fed New Zealand Oryctolagus cuniculus (rabbit) assessed as high-density lipoprotein-cholesterol level in blood at 4 mg/kg, po for 40 days (reference value: 0.67 +/- 0.22 mmol/l); assay type: functional
Oryctolagus cuniculus [10] = assay: Antihyperlipidemic activity in high fat-high cholesterol fed New Zealand Oryctolagus cuniculus (rabbit) assessed as low-density lipoprotein-cholesterol level in blood at 4 mg/kg, po for 40 days (reference value: 3.45 +/- 0.56 mmol/l); assay type: functional
Oryctolagus cuniculus [11] = assay: Antihyperlipidemic activity in high fat-high cholesterol fed New Zealand Oryctolagus cuniculus (rabbit) assessed as triglyceride level in blood at 4 mg/kg, po for 40 days (reference value: 2.11 +/- 0.43 mmol/l); assay type: functional
Oryctolagus cuniculus [12] = assay: Antihyperlipidemic activity in high fat-high cholesterol fed New Zealand Oryctolagus cuniculus (rabbit) assessed as total cholesterol level in blood at 4 mg/kg, po for 40 days (reference value: 8.89 +/- 0.53 mmol/l); assay type: functional

For `CCCCCCCCCCCCc1c2c(OC)c(OC)ccc2cc2[n+]1CCc1cc3c(cc1-2)OCO3.[Cl-]` [8-DODECYL-BERBERINE CHLORIDE], the inhibition [1] was 4.2%, the Activity (Oryctolagus cuniculus [2]) was 720000 nmol/L and the Activity (Oryctolagus cuniculus [3]) was 2.98e+06 nmol/L. For the same compound, the Activity (Oryctolagus cuniculus [4]) was 1.86e+06 nmol/L, the Activity (Oryctolagus cuniculus [5]) was 6.04e+06 nmol/L and the LD50 [6] was 752 mg/kg. For the same compound, the Activity (Oryctolagus cuniculus [7]) was “Non-toxic” and the Activity (Oryctolagus cuniculus [8]) was “Non-toxic”.

For `CCCCCCCCCCCCCCCCCCc1c2c(OC)c(OC)ccc2cc2[n+]1CCc1cc3c(cc1-2)OCO3.[Cl-]` [8-OCTADECYL-BERBERINE CHLORIDE], the inhibition [1] was 33%, the Activity (Oryctolagus cuniculus [2]) was 750000 nmol/L and the Activity (Oryctolagus cuniculus [3]) was 2.55e+06 nmol/L. The Activity (Oryctolagus cuniculus [4]) was 1.6e+06 nmol/L, the Activity (Oryctolagus cuniculus [5]) was 2.37e+06 nmol/L and the LD50 [6] was greater than 1000 mg/kg. The Activity (Oryctolagus cuniculus [7]) was “Non-toxic” and the Activity (Oryctolagus cuniculus [8]) was “Non-toxic”.

`CCCCCCCCc1c2c(OC)c(OC)ccc2cc2[n+]1CCc1cc3c(cc1-2)OCO3.[Cl-]` [8-OCTYL-BERBERINE CHLORIDE] showed an Activity (Oryctolagus cuniculus [2]) of 700000 nmol/L, an Activity (Oryctolagus cuniculus [3]) of 3.06e+06 nmol/L and an Activity (Oryctolagus cuniculus [4]) of 1.95e+06 nmol/L. The Activity (Oryctolagus cuniculus [5]) was 6.25e+06 nmol/L, the LD50 [6] was 534 mg/kg and the Activity (Oryctolagus cuniculus [7]) was “Non-toxic”. The Activity (Oryctolagus cuniculus [8]) was “Non-toxic”.

`CCCCCCCCCCCCCCc1c2c(OC)c(OC)ccc2cc2[n+]1CCc1cc3c(cc1-2)OCO3.[Cl-]` [8-TETRADECYL-BERBERINE CHLORIDE] gave an inhibition [1] of 11.2%, an Activity (Oryctolagus cuniculus [2]) of 730000 nmol/L and an Activity (Oryctolagus cuniculus [3]) of 2.41e+06 nmol/L. The Activity (Oryctolagus cuniculus [4]) was 1.73e+06 nmol/L, the Activity (Oryctolagus cuniculus [5]) was 6.02e+06 nmol/L and the LD50 [6] was 803 mg/kg. For the same compound, the Activity (Oryctolagus cuniculus [7]) was “Non-toxic” and the Activity (Oryctolagus cuniculus [8]) was “Non-toxic”.

In the case of `COc1ccc2cc3[n+](cc2c1OC)CCc1cc2c(cc1-3)OCO2.[Cl-]` [BERBERINE CHLORIDE], the Activity (Oryctolagus cuniculus [2]) is reported as 700000 nmol/L, the Activity (Oryctolagus cuniculus [3]) is reported as 3.27e+06 nmol/L and the Activity (Oryctolagus cuniculus [4]) is reported as 2.02e+06 nmol/L. The Activity (Oryctolagus cuniculus [5]) was 7.94e+06 nmol/L and the LD50 [6] was 764 mg/kg.

With `CC[C@H](C)C(=O)O[C@H]1C[C@@H](C)C=C2C=C[C@H](C)[C@H](CC[C@@H]3C[C@@H](O)CC(=O)O3)[C@H]21` [LOVASTATIN] the inhibition [1] was 20.2%, the Activity (Oryctolagus cuniculus [9]) was 780000 nmol/L and the Activity (Oryctolagus cuniculus [10]) was 1.85e+06 nmol/L. The Activity (Oryctolagus cuniculus [11]) was 1.62e+06 nmol/L, the LD50 [6] was greater than 1000 mg/kg and the Activity (Oryctolagus cuniculus [12]) was 2.56e+06 nmol/L.
